Measured values taken from patent EP0623024B1, “PHARMACEUTICAL BACTERIOCIN COMPOSITIONS AND THEIR USE FOR TREATING GASTROINTESTINAL DISORDERS” (APPLIED MICROBIOLOGY, INC., priority 1992, dated 1993).
Several values for one entry are separate records, joined by “and”; a condition that tells them apart may be missing. Equal values may be shown once. Marks after values point to notes of the source that are not given here. Ends that are not written are not given here.

How the values were obtained:
Helicobacter pylori [1] = assay: germicidal suspension assay; details: nisin 0 or 100 µg/ml, 37°C
[2] = system: Campylobacter jejuni ATCC29428; assay: germicidal suspension assay; details: nisin 0 or 100 µg/ml, 37°C
Escherichia coli = assay: germicidal suspension assay of chelator-enhanced nisin in acid vehicles; assay type: cell-based; details: for % survival at 1 min: 37°C
Procedure: The rapid activities of various chelator-enhanced nisin formulations were evaluated in acid vehicles in a germicidal suspension assay.
E. coli cells from an overnight Trypticase soy nutrient agar (TSA) were resuspended to a density measured as an absorbance of 1.0 at 600 nm in sterile ddH2O. The reaction of the cells with each of the bactericidal test formulations analyzed was started by addition of 30 µl of cells to 970 µl of test formulation. The reaction mixture was incubated at 37°C for at least 1 minute and then centrifuged in a microfuge for 1 minute. The cell pellet was washed by resuspension in 1 ml of neutralization buffer. (The neutralization buffer: 50 mM Tris-HCl, pH 7.0, 5 mM MgSO4, 20 mM CaC12, 0.1 M NaCl and 0.1% gelatin was prepared by first making Tris buffer and adjusting the pH. The salts and gelatin were then added and the solution stirred with heat until the solution was clear. The solution was then autoclaved for 20 min. The neutralization buffer was used without dilution.) The cells were centrifuged in a microfuge for 1 minute and resuspended in 1 ml of neutralization buffer. The viable count was determined by spreading 100 µl of bacterial suspension and serial dilutions thereof in neutralization buffer on nutrient agar and scoring surviving colonies after 24 h at 37°C. Percent survival relative to untreated controls was calculated from the scored values.
In Table 1 and subsequent Tables 2, 4 and 8-13 values preceded by "<" represent the percent survival figures, based on the initial concentration of viable bacteria (expressed as colony forming units (cfu) /ml) in the assayed bacterial suspension and the aliquot volume of said suspension taken for assay, corresponding to the detection of no surviving colonies.

E. coli strain ATCC8739 = assay: nisin-citrate agar assay (growth inhibition on nutrient agar); assay type: cell-based
From the text: However, nisin in the presence of citrate is active against gram negative bacteria. […] This nisin-citrate agar assay has much more general applicability. The assay provides a method for screening potential agents other than citrate in combination with nisin for their potential properties as enhancers of nisin's inherent bactericidal activity. Examples of other organic acids in combination with nisin would include acetate, propionate, lactate, succinate, fumarate, malonate, adipate, sorbate, phosphate and ascorbate.
The nisin-citrate agar assay is performed as follows. E. coli is resuspended to an optical density of 1.0 at A600. A 100 µl sample of the bacterial suspension is spread uniformly on Trypticase Soy nutrient agar (TSA) supplemented with various concentrations of citrate (eg. 0.1%, 0.3%, 1.0%, 3.0%) and incubated for 1 hour at 37°C. A nisin stock solution and serial dilutions thereof in 0.1% bovine serum albumin (BSA), are prepared and 5 µl are taken from each and deposited onto the growing bacterial lawn. The TSA plates are then incubated for 24 hours at 37°C. After 24 hours at 37°C, E. coli grown on TSA supplemented with citrate form a confluent lawn. […] The effectiveness of nisin against the gram negative bacteria can be assessed from determining the minimum amount of nisin required to produce a clear zone of growth inhibition. As the concentration of citrate in the nutrient agar is increased, less nisin is required to inhibit the growth of E. coli, as is illustrated by the data shown in Table 6.

Helicobacter pylori [3] = assay: germicidal suspension assay; assay type: cell-based; details: 37°C
[4] = system: Campylobacter jejuni ATCC29428; assay: germicidal suspension assay; assay type: cell-based; details: for % survival at 5 min: pH 5.0, nisin 100 µg/ml, 37°C

For `O=C(O)CC(O)(CC(=O)O)C(=O)O` [Citrate], the “% survival at 5 min” value (Helicobacter pylori [1]; strain ATCC 43504, 0.1% citrate adjusted to pH 5.0) was 68.5^d %, the “% survival at 5 min” value (Helicobacter pylori [1]; strain ATCC 43504, 0.3% citrate adjusted to pH 5.0) was 100^e % and the “% survival at 5 min” value (Helicobacter pylori [1]; strain ATCC 43579, 0.1% citrate adjusted to pH 2.5) was <5.0x10^-4%. The “% survival at 5 min” value (Helicobacter pylori [1]; strain ATCC 43579, 0.1% citrate adjusted to pH 3.0) was 1.1x10^-3%, the “% survival at 5 min” value (Helicobacter pylori [1]; strain ATCC 43579, 0.1% citrate adjusted to pH 5.0) was 97.2^b % and the “% survival at 5 min” value ([2]; 0.3 % w/v citrate pH 5.0) was <6.4x10^-3%. The “% survival at 5 min” value ([2]; 1.0 % w/v citrate pH 5.0) was <6.4x10^-3%.
With “nisin (ITSISLCTPGCKTGALMGCNMKTATCHCSIHVSK; also: lantibiotic nisin A: thioether rings and dehydrated residues not placed; UniProt P13068 24-57, looked up) [lanthionine-containing bacteriocin]” the “% survival at 1 min” value (Escherichia coli; 0.1 % w/v acetate pH 3.5, nisin 100 µg/ml and/or EDTA 1.0 mM, or acetate alone) was 9.6%, the “% survival at 1 min” value (Escherichia coli; 0.1 % w/v lactate pH 3.5, nisin 100 µg/ml and/or EDTA 1.0 mM, or lactate alone) was 4.4% and the “% survival at 1 min” value (Escherichia coli; 0.1 % w/v succinate pH 3.5, nisin 100 µg/ml and/or EDTA 1.0 mM, or succinate alone) was 18.3%. The “% survival at 1 min” value (Escherichia coli; 0.3 % w/v acetate pH 3.5, nisin 100 µg/ml and/or EDTA 1.0 mM, or acetate alone) was 70%, the “% survival at 1 min” value (Escherichia coli; 0.3 % w/v lactate pH 3.5, nisin 100 µg/ml and/or EDTA 1.0 mM, or lactate alone) was 0.24% and the “% survival at 1 min” value (Escherichia coli; 0.3 % w/v succinate pH 3.5, nisin 100 µg/ml and/or EDTA 1.0 mM, or succinate alone) was 66.6%. For the same molecule, the “% survival at 1 min” value (Escherichia coli; 1.0 % w/v acetate pH 3.5, nisin 100 µg/ml and/or EDTA 1.0 mM, or acetate alone) was 100%, the “% survival at 1 min” value (Escherichia coli; 1.0 % w/v lactate pH 3.5, nisin 100 µg/ml and/or EDTA 1.0 mM, or lactate alone) was 17.8% and the “% survival at 1 min” value (Escherichia coli; 1.0 % w/v succinate pH 3.5, nisin 100 µg/ml and/or EDTA 1.0 mM, or succinate alone) was 83.4%. For the same molecule, the “% survival at 1 min” value (Escherichia coli; 3.0 % w/v acetate pH 3.5, nisin 100 µg/ml and/or EDTA 1.0 mM, or acetate alone) was 100%, the “% survival at 1 min” value (Escherichia coli; 3.0 % w/v lactate pH 3.5, nisin 100 µg/ml and/or EDTA 1.0 mM, or lactate alone) was 26.7% and the “% survival at 1 min” value (Escherichia coli; 3.0 % w/v succinate pH 3.5, nisin 100 µg/ml and/or EDTA 1.0 mM, or succinate alone) was 28.4%. The “survival of E. coli on exposure to the agent by itself” value (Escherichia coli; each agent by itself) was “unaffected”, the “% survival at 1 min” value (Escherichia coli; pH 2.0, 20 mM Na acetate buffer, nisin 100 µg/ml and/or EDTA 1.0 mM) was 0.28% and the “% survival at 1 min” value (Escherichia coli; pH 2.5, 20 mM Na acetate buffer, nisin 100 µg/ml and/or EDTA 1.0 mM) was 3.37%. For the same molecule, the “% survival at 1 min” value (Escherichia coli; pH 3.0, 20 mM Na acetate buffer, nisin 100 µg/ml and/or EDTA 1.0 mM) was 4.43%, the “% survival at 1 min” value (Escherichia coli; pH 3.5, 20 mM Na acetate buffer, nisin 100 µg/ml and/or EDTA 1.0 mM) was 100% and the “% survival at 1 min” value (Escherichia coli; pH 4.0, 20 mM Na acetate buffer, nisin 100 µg/ml and/or EDTA 1.0 mM) was 100%. The “Nisin NIC (nominal inhibitory concentration of nisin minimally required to prevent growth)” value (E. coli strain ATCC8739; Trypticase Soy Agar supplemented with 0.1% citrate) was 370 µg/mL, the “Nisin NIC (nominal inhibitory concentration of nisin minimally required to prevent growth)” value (E. coli strain ATCC8739; Trypticase Soy Agar supplemented with 0.3% citrate) was 123 µg/mL and the “Nisin NIC (nominal inhibitory concentration of nisin minimally required to prevent growth)” value (E. coli strain ATCC8739; Trypticase Soy Agar supplemented with 1.0% citrate) was 13.7 µg/mL. For the same molecule, the “Nisin NIC (nominal inhibitory concentration of nisin minimally required to prevent growth)” value (E. coli strain ATCC8739; Trypticase Soy Agar supplemented with 3.0% citrate) was 0.06 µg/mL, the “Nisin NIC (nominal inhibitory concentration of nisin minimally required to prevent growth)” value (E. coli strain ATCC8739; Trypticase Soy Agar with 0% citrate) was 3,333 µg/ml and the “% survival at 5 min” value (Helicobacter pylori [3]; strain ATCC 43504, EDTA 0, nisin 100 µg/ml, pH 5.0, incubated in presence of 20 mM acetate) was 7.03^e %. The “% survival at 5 min” value (Helicobacter pylori [3]; strain ATCC 43504, citrate 0, nisin 100 µg/ml, 20 mM acetate, pH 5.0, two experiments (initial count 2.7 x 10^5 and 3.7 x 10^4 cfu/ml)) was 0.69^d % and 4.86^e %, the “% survival at 5 min” value (Helicobacter pylori [3]; strain ATCC 43504, pH 5.0, citrate 0, nisin 100 µg/ml) was 0.043% and the “% survival at 5 min” value (Helicobacter pylori [3]; strain ATCC 43504, pH 7.0, citrate 0, nisin 100 µg/ml) was 2.08%. The “% survival at 5 min” value (Helicobacter pylori [3]; strain ATCC 43526, pH 7.0, EDTA 0, nisin 100 µg/ml) was 5.88%, the “% survival at 5 min” value (Helicobacter pylori [3]; strain ATCC 43579, citrate 0, nisin 100 µg/ml, 20 mM acetate, pH 5.0, average of 5 experiments) was 0.30^c % and the “% survival at 5 min” value (Helicobacter pylori [3]; strain ATCC 43579, citrate 0, nisin 100 µg/ml, 20 mM acetate, pH 5.0, single experiment) was 8.6x10^-3 ^e %. The “% survival at 5 min” value (Helicobacter pylori [3]; strain ATCC 43579, nisin 10 µg/ml, without or with 0.1% citrate pH 5.0) was 1.41%, the “% survival at 5 min” value (Helicobacter pylori [3]; strain ATCC 43579, nisin 30 µg/ml, without or with 0.1% citrate pH 5.0) was 0.39% and the “% survival at 5 min” value (Helicobacter pylori [3]; strain ATCC 43579, nisin 100 µg/ml, without or with 0.1% citrate pH 5.0) was 0.085%. The “% survival at 5 min” value (Helicobacter pylori [3]; strain ATCC 43579, nisin 300 µg/ml, without or with 0.1% citrate pH 5.0) was 0.0056%, the “% survival at 5 min” value (Helicobacter pylori [3]; strain ATCC 43579, pH 5.0, EDTA 0, nisin 100 µg/ml) was 4.7% and the “% survival at 5 min” value (Helicobacter pylori [3]; strain ATCC 43579, pH 5.0, citrate 0, nisin 100 µg/ml) was 9.62%. The “% survival at 5 min” value (Helicobacter pylori [3]; strain ATCC 43579, pH 7.0, citrate 0, nisin 100 µg/ml) was 0.78%, the “% survival at 5 min” value ([4]; EDTA 0) was <5.0x10^-4% and the “% survival at 5 min” value ([4]; citrate 0) was <6.4x10^-3%. The “effectiveness towards C. jejuni” value ([4]; nisin by itself) was “extremely effective”.
